# Reference: patent publication US7745547B1, “Multi-arm cyclic or cubic siloxane-based formulations for drug delivery” (Becton, Dickinson and Company, priority 2005, dated 2010)
# How the values were obtained:
# [1] = Drug release time study of encapsulated cisplatin by UV-vis absorbance at 300 nm; assay type: physicochemical
# Description: A drug release time study was performed on encapsulated cisplatin (i.e., cisplatin/delivery vehicle) to assess the time for complete release of the encapsulated drug from the delivery vehicle. UV-vis spectroscopy was used to monitor the change in absorbance in peaks associated with cisplatin over time.
# 5 mg of cisplatin was placed in a glass vial and 10 mL of water (10 mL) added. The vial was sonicated in a Bransonic Ultrasonic Cleaner (115 v, 50/60 HZ, […] transducer) for about 5 min to completely dissolve the cisplatin. 50 mg of the delivery vehicle (PEG400)4D4^M was placed in a separate vial and 10 mL of water added. Upon shaking, the polymer dissolved immediately. The cisplatin solution was added to the delivery vehicle solution drop-wise with sonication. After the mixing was complete, a UV-vis spectrum was recorded. The solution was further sonicated for 1 hr and monitored with UV-vis spectroscopy at intervals of 10 min to examine the encapsulation process. After 1 hr, sonication was stopped and incubation was allowed to continue at room temperature without shaking. UV-vis spectra were recorded at 20 min intervals for one hr, followed by 3 hours intervals for the next 24 hrs. After 24 hrs, UV-vis spectra were recorded at random intervals for several days to monitor the release time of the cisplatin. For reference, another solution of pure cisplatin was prepared at a similar concentration, and UV-vis spectra were recorded for the un-encapsulated cisplatin solution at similar intervals as with the encapsulated cisplatin solution. In about 200 hours ([…]), the absorbance of the encapsulated cisplatin solution dropped to the same level as that of the un-encapsulated cisplatin solution. This was viewed as the complete release of encapsulated cisplatin from the vehicle. All data provided in Table 4 were collected at a wavelength of 300 nm.
# [2] = Microscopy of dried drops: crystal formation as evidence of cisplatin encapsulation; assay type: physicochemical; settings: one drop on glass slide, room temperature, open air
# Description: The cisplatin/delivery vehicle samples were also examined under a microscope to further investigate the encapsulation. Specifically, a comparison was made between encapsulated and un-encapsulated cisplatin.
# The cisplatin/delivery vehicle samples were also examined under a microscope to further investigate the encapsulation. A comparison was made between encapsulated and un-encapsulated cisplatin.
# [3] = one drop of ethanol solution dried on glass slide
# Description: To verify the encapsulation, samples were examined under the microscope and a comparison was made between the paclitaxel solution alone and the paclitaxel/delivery vehicle solution. In particular, one drop of each solution was placed on a separate glass slide and the ethanol was allowed to evaporate at room temperature in the open-air. After complete evaporation of the ethanol, dry sample spots were covered and sealed by cover slides and both slides were examined under microscope.
# For microscopic analysis, one drop of each solution (i.e., paclitaxel alone paclitaxel/delivery vehicle solutions) and was placed on a separate glass slide. The ethanol was allowed to evaporate at room temperature in the open-air. After complete evaporation of the ethanol, dry sample spots were covered and sealed by cover slides and both slides were examined under the microscope.
structure (smiles),measurement,setting,value
"N.N.[Cl][Pt][Cl] [un-encapsulated cisplatin, cisplatin]",Absorbance,[1]; time 0.00 hrs,0.18
same,Absorbance,[1]; time 0.17 hrs,0.17
same,Absorbance,[1]; time 0.33 hrs,0.16
same,Absorbance,[1]; time 0.50 hrs,0.16
same,Absorbance,[1]; time 0.67 hrs,0.16
same,Absorbance,[1]; time 0.83 hrs,0.16
same,Absorbance,[1]; time 1.00 hrs,0.16
same,Absorbance,[1]; time 1.33 hrs,0.16
same,Absorbance,[1]; time 1.67 hrs,0.16
same,Absorbance,[1]; time 2.00 hrs,0.16
same,Absorbance,[1]; time 3.00 hrs,0.16
same,Absorbance,[1]; time 21.00 hrs,0.15
same,Absorbance,[1]; time 24.00 hrs,0.15
same,Absorbance,[1]; time 42.00 hrs,0.15
same,Absorbance,[1]; time 45.00 hrs,0.15
same,Absorbance,[1]; time 72.00 hrs,0.15
same,Absorbance,[1]; time 88.00 hrs,0.15
same,Absorbance,[1]; time 120.00 hrs,0.15
same,Absorbance,[1]; time 174.00 hrs,0.15
same,Absorbance,[1]; time […],0.15
same,crystal formation as water evaporates (microscope),[2],formed crystals
"CC(=O)O[C@H]1C(=O)[C@@]2(C)[C@H]([C@H](OC(=O)c3ccccc3)[C@]3(O)C[C@H](OC(=O)[C@H](O)[C@@H](NC(=O)c4ccccc4)c4ccccc4)C(C)=C1C3(C)C)[C@]1(OC(C)=O)CO[C@@H]1C[C@@H]2O [un-encapsulated paclitaxel, paclitaxel]",fluorescence when exposed to fluorescent light (microscope),[3],shows fluorescence activity
